This experiment has as its system Beet Armyworm (Spodoptera exigua). The experiment in a line: Bioassay on Beet Armyworm (BAW), 128-well diet tray assay. Format: in vivo. Conditions: percent mortality of second instar larvae, 50 μg/cm^2 on artificial diet, five to seven days, 25° C.; Table 3. On the procedure:
Certain molecules disclosed in this document were tested against BAW and CEW and CL using procedures described in the following examples. In the reporting of the results, the “BAW & CEW & CL Rating Table” was used (See Table Section).
Bioassays on BAW (Spodoptera exigua)
Bioassays on BAW were conducted using a 128-well diet tray assay. one to five second instar BAW larvae were placed in each well (3 mL) of the diet tray that had been previously filled with 1 mL of artificial diet to which 50 μg/cm^2 of the test compound (dissolved in 50 μL of 90:10 acetone-water mixture) had been applied (to each of eight wells) and then allowed to dry. Trays were covered with a clear self-adhesive cover, and held at 25° C., 14:10 light-dark for five to seven days. Percent mortality was recorded for the larvae in each well; activity in the eight wells was then averaged. The results are indicated in the table entitled “Table 3: Assay Results” (See Table Section).
Regarding `O=C(CC(F)(F)F)NCc1ccc(/C=C/C(c2cc(Cl)c(Cl)c(Cl)c2)C(F)(F)F)cc1F` (centres unmarked) [CC27], the “BAW Rating” value is listed as “A (50-100)”.
Regarding `Cc1cc(/C=C/C(c2cc(Cl)cc(Cl)c2)C(F)(F)F)ccc1C(=O)NCc1ccccc1F` (centres unmarked) [AC9], the “BAW Rating” value is reported as “A (50-100)”.
The result for `O=C(NC1C[S+]([O-])C1)c1ccc(/C=C/C(c2cc(Cl)c(F)c(Cl)c2)C(F)(F)F)cc1F` (centres unmarked) [AC87] reads “A (50-100)”; that for `FC(F)(F)c1cc(C(/C=C/c2ccc(-n3cncn3)cc2)C(F)(F)F)cc(C(F)(F)F)c1` (centres unmarked) [DC16], “A (50-100)”.
The result for `N#Cc1cc(/C=C/C(c2cc(Cl)cc(C(F)(F)F)c2)C(F)(F)F)ccc1-n1cncn1` (centres unmarked) [DC33] reads “A (50-100)”; that for `FC(F)(F)C(/C=C/c1ccc(-n2cncn2)cc1)c1ccc(Cl)cc1` (centres unmarked) [DC4], “A (50-100)”.
The result for `Cc1cc(/C=C/C(c2cc(Cl)cc(Cl)c2)C(F)(F)F)ccc1C(=O)NCc1cncnc1` (centres unmarked) [AC39, 4-((E)-3-(3,5-Dichlorophenyl)-4,4,4-trifluorobut-1-enyl)-2-methyl-N-((pyrimidin-5-yl)methyl)benzamide] reads “A (50-100)”.
Turning to `O=C(Cn1ncc2cc(/C=C/C(c3cc(Cl)c(F)c(Cl)c3)C(F)(F)F)ccc2c1=O)NCC(F)(F)F` (centres unmarked) [BC14, (E)-2-(6-(3-(3,5-Dichloro-4-fluorophenyl)-4,4,4-trifluorobut-1-en-1-yl)-1-oxophthalazin-2(1H)-yl)-N-(2,2,2-trifluoroethyl)acetamide], the “BAW Rating” value is “A (50-100)”.
For the compound `Cc1cc(/C=C/C(c2cc(Cl)cc(Cl)c2)C(F)(F)F)ccc1C(=O)NCc1ccccc1` (centres unmarked) [AC11], the “BAW Rating” value is “A (50-100)”.
Take `FC(F)(F)c1cc(/C=C/C(c2cc(Cl)cc(Cl)c2)C(F)(F)F)ccc1-n1cncn1` (centres unmarked) [DC51]: the “BAW Rating” value was “A (50-100)”.
Take `O=C(NCc1ccc(/C=C/C(c2cc(Cl)c(Cl)c(Cl)c2)C(F)(F)F)cc1)C1CC1` (centres unmarked) [CC5]: the “BAW Rating” value is “A (50-100)”.
The result for `FC(F)(F)C(/C=C/c1ccc(-n2cncn2)cc1)c1cc(Cl)cc(Cl)c1` (centres unmarked) [DC1, (E)-1-(4-(3-(3,5-Dichlorophenyl)-4,4,4-trifluorobut-1-en-1-yl)phenyl)-1H-1,2,4-triazole] reads “A (50-100)”; that for `O=C(NC1CS(=O)(=O)C1)c1ccc(/C=C/C(c2cc(Cl)cc(Cl)c2)C(F)(F)F)cc1F` (centres unmarked) [AC83, (E)-4-(3-(3,5-Dichlorophenyl)-4,4,4-trifluorobut-1-en-1-yl)-N-(1,1-dioxidothietan-3-yl)-2-fluorobenzamide], “A (50-100)”; that for `Cc1cc(/C=C/C(c2cc(Cl)cc(Cl)c2)C(F)(F)F)ccc1C(=O)NC1CSC1` (centres unmarked) [AC10], “A (50-100)”.
As for `O=C(CC(F)(F)F)NC1CCc2cc(/C=C/C(c3cc(Cl)c(F)c(Cl)c3)C(F)(F)F)ccc21` (centres unmarked) [BC8], the “BAW Rating” value is given as “A (50-100)”.
The result for `O=C(NC1CSC1)c1ccc(/C=C/C(c2cc(Cl)c(F)c(Cl)c2)C(F)(F)F)cc1F` (centres unmarked) [AC67] reads “A (50-100)”; that for `O=C(NC1CS(=O)(=O)C1)c1ccc(/C=C/C(c2cc(Cl)c(Cl)c(Cl)c2)C(F)(F)F)cc1Cl` (centres unmarked) [AC30], “A (50-100)”; that for `Cc1cc(/C=C/C(c2cc(Cl)c(F)c(Cl)c2)C(F)(F)F)ccc1C(=O)NCc1ccnc(Cl)c1` (centres unmarked) [AC54], “A (50-100)”.
For `O=C(NC1CCN(C2COC2)CC1)c1ccc(/C=C/C(c2cc(Cl)c(Cl)c(Cl)c2)C(F)(F)F)cc1Br` (centres unmarked) [AC108, (E)-2-Bromo-N-(1-(oxetan-3-yl)piperidin-4-yl)-4-(4,4,4-trifluoro-3-(3,4,5-trichlorophenyl)but-1-en-1-yl)benzamide] the value was “B (More than 0-Less than 50)”; for `O=C(CC(F)(F)F)NCc1ccc(/C=C/C(c2cc(Cl)c(Cl)c(Cl)c2)C(F)(F)F)cc1C(F)(F)F` (centres unmarked) [CC24], “A (50-100)”.
Turning to `O=C(NCc1ccc(/C=C/C(c2cc(Cl)c(Cl)c(Cl)c2)C(F)(F)F)cc1C(F)(F)F)c1cccnc1` (centres unmarked) [CC23], the “BAW Rating” value is “A (50-100)”.
`O=C(NCc1ccc(/C=C/C(c2cc(Cl)c(F)c(Cl)c2)C(F)(F)F)cc1Cl)C1CC1` (centres unmarked) [CC15]: the “BAW Rating” value was “A (50-100)”.
As to `N#Cc1cc(/C=C/C(c2cc(Cl)c(Cl)c(Cl)c2)C(F)(F)F)ccc1-n1cnc(N)n1` (centres unmarked) [DC41, (E)-2-(3-Amino-1H-1,2,4-triazol-1-yl)-5-(4,4,4-trifluoro-3-(3,4,5-trichlorophenyl)but-1-en-1-yl)benzonitrile], the “BAW Rating” value is recorded as “A (50-100)”.
For `N#Cc1cc(/C=C/C(c2cc(Cl)c(F)c(Cl)c2)C(F)(F)F)ccc1-n1cncn1` (centres unmarked) [DC35], the “BAW Rating” value was “A (50-100)”.
Take `O=C(NC1CS(=O)(=O)C1)c1ccc(/C=C/C(c2cc(Cl)c(F)c(Cl)c2)C(F)(F)F)cc1F` (centres unmarked) [AC84]: the “BAW Rating” value is recorded as “A (50-100)”.
The result for `Cc1cc(/C=C/C(c2cc(Cl)cc(Cl)c2)C(F)(F)F)ccc1C(=O)NCC(=O)N(C)CC(F)(F)F` (centres unmarked) [AC51] reads “A (50-100)”; that for `O=C(CNC(=O)c1ccc(/C=C/C(c2cc(Cl)c(Cl)c(Cl)c2)C(F)(F)F)cc1Cl)NCC(F)(F)F` (centres unmarked) [AC64, (E)-2-Chloro-N-(2-oxo-2-((2,2,2-trifluoroethyl)amino)ethyl)-4-(4,4,4-trifluoro-3-(3,4,5-trichlorophenyl)but-1-en-1-yl)benzamide], “A (50-100)”.
For `O=C(NC1CCc2cc(/C=C/C(c3cc(Cl)c(Cl)c(Cl)c3)C(F)(F)F)ccc21)C1CC1` (centres unmarked) [BC6], the “BAW Rating” value is on record as “A (50-100)”.
Take `CS(=O)(=O)CCC(=O)NCc1ccc(/C=C/C(c2cc(Cl)c(Cl)c(Cl)c2)C(F)(F)F)cc1Cl` (centres unmarked) [CC30, (E)-N-(2-Chloro-4-(4,4,4-trifluoro-3-(3,4,5-trichlorophenyl)but-1-en-1-yl)benzyl)-3-(methylsulfonyl)propanamide]: the “BAW Rating” value is reported as “A (50-100)”.
The result for `Cc1cc(/C=C/C(c2cc(Cl)cc(Cl)c2)C(F)(F)F)ccc1C(=O)NCc1nc2ccccc2s1` (centres unmarked) [AC42] reads “A (50-100)”; that for `O=C(CC(F)(F)F)NC1CCCc2cc(/C=C/C(c3cc(Cl)c(Cl)c(Cl)c3)C(F)(F)F)ccc21` (centres unmarked) [BC5], “A (50-100)”.
Take `O=C(NCc1ccc(Cl)nc1)c1ccc(/C=C/C(c2cc(Cl)c(F)c(Cl)c2)C(F)(F)F)cc1F` (centres unmarked) [AC65]: the “BAW Rating” value is “A (50-100)”.
The result for `CCNC(=O)NCc1ccc(/C=C/C(c2cc(Cl)c(Cl)c(Cl)c2)C(F)(F)F)cc1Br` (centres unmarked) [CC33] reads “A (50-100)”.
The result for `N#Cc1cc(/C=C/C(c2cc(Cl)c(Cl)c(Cl)c2)C(F)(F)F)ccc1-n1cnc(NC(=O)C2CC2)n1` (centres unmarked) [DC43, (E)-N-(1-(2-Cyano-4-(4,4,4-trifluoro-3-(3,4,5-trichlorophenyl)but-1-en-1-yl)phenyl)-1H-1,2,4-triazol-3-yl)cyclopropanecarboxamide] reads “A (50-100)”; that for `Cc1cc(/C=C/C(c2cc(Cl)c(Cl)c(Cl)c2)C(F)(F)F)cc(C#N)c1-n1cncn1` (centres unmarked) [DC45], “A (50-100)”.
For `CCOC(=O)c1cc(/C=C/C(c2cc(Cl)cc(Cl)c2)C(F)(F)F)ccc1-n1cncn1` (centres unmarked) [DC60] the value was “A (50-100)”; for `O=C(NC1CCNCC1)c1ccc(/C=C/C(c2cc(Cl)c(Cl)c(Cl)c2)C(F)(F)F)cc1Br` (centres unmarked) [AC114, (E)-2-Bromo-N-(piperidin-4-yl)-4-(4,4,4-trifluoro-3-(3,4,5-trichlorophenyl)but-1-en-1-yl)benzamide], “A (50-100)”.
Consider `Cc1cc(/C=C/C(c2cc(Cl)cc(Cl)c2)C(F)(F)F)ccc1C(=O)NCC(=O)NC1CS(=O)(=O)C1` (centres unmarked) [AC81], for which the “BAW Rating” value was “A (50-100)”.
`Cc1cc(/C=C/C(c2cc(Cl)c(F)c(Cl)c2)C(F)(F)F)ccc1C(=O)NC1CCOCC1` (centres unmarked) [AC52]: the “BAW Rating” value is listed as “A (50-100)”.
For `FC(F)(F)C(/C=C/c1ccc(-n2cncn2)c(Cl)c1)c1cc(Cl)c(Cl)c(Cl)c1` (centres unmarked) [DC49], the “BAW Rating” value is “A (50-100)”.
For `Cc1cc(/C=C/C(c2cc(Cl)c(F)c(Cl)c2)C(F)(F)F)ccc1C(=O)NCc1ccc(Cl)cn1` (centres unmarked) [AC53] the value was “A (50-100)”.
Turning to `Cc1cc(/C=C/C(c2cc(Cl)cc(Cl)c2)C(F)(F)F)ccc1C(=O)NCc1ccoc1` (centres unmarked) [AC20], the “BAW Rating” value is “A (50-100)”.
The result for `FC(F)(F)C(/C=C/c1ccc(-n2cncn2)cc1)c1ccccc1` (centres unmarked) [DC3] reads “B (More than 0-Less than 50)”.
For `Cc1cc(/C=C/C(c2cc(Cl)cc(Cl)c2)C(F)(F)F)ccc1C(=O)NNc1ccccc1F` (centres unmarked) [AC17] the value was “A (50-100)”; for `FC(F)(F)C(/C=C/c1ccc(-n2cncn2)cc1)c1ccc(Cl)c(Cl)c1` (centres unmarked) [DC12], “A (50-100)”; for `CCNC(=O)NCc1ccc(/C=C/C(c2cc(Cl)cc(Cl)c2)C(F)(F)F)cc1Cl` (centres unmarked) [CC31, (E)-1-(2-Chloro-4-(3-(3,5-dichlorophenyl)-4,4,4-trifluorobut-1-en-1-yl)benzyl)-3-ethylurea], “B (More than 0-Less than 50)”.
`FC(F)(F)C(/C=C/c1ccc(CNC(=S)C2CC2)c(Cl)c1)c1cc(Cl)c(Cl)c(Cl)c1` (centres unmarked) [CC20]: the “BAW Rating” value is “A (50-100)”.
For `CONC(=O)CNC(=O)c1ccc(/C=C/C(c2cc(Cl)c(Cl)c(Cl)c2)C(F)(F)F)cc1Br` (centres unmarked) [AC110] the value was “A (50-100)”.
With `O=C(CNC(=O)c1ccc(/C=C\C(c2cc(Cl)c(Cl)c(Cl)c2)C(F)(F)F)cc1Br)NCC(F)(F)F` (centres unmarked) [AC95, (Z)-2-Bromo-N-(2-oxo-2-((2,2,2-trifluoroethyl)amino)ethyl)-4-(4,4,4-trifluoro-3-(3,4,5-trichlorophenyl)but-1-en-1-yl)benzamide], the “BAW Rating” value was “A (50-100)”.
On to `O=C(NCc1ccc(/C=C/C(c2ccc(Cl)c(Cl)c2)C(F)(F)F)cc1Cl)C1CC1` (centres unmarked) [CC17], for which the “BAW Rating” value was “A (50-100)”.
